From patent US5574068A, “S-nitrosothiols as smooth muscle relaxants and therapeutic uses thereof” (Brigham and Woman's Hospital, priority 1994, dated 1996)
“Also recorded” adds a separate entry of the source. One block for each compound: values may come before it.

Tests used:
[1] = tested on: human airway smooth muscle; assay: Airway bioassay: relaxation of contracted human tracheal/airway rings; format: cell-based; conditions: for relaxant effect on human trachea, comparison with other agents: human tracheal rings, FIGS. 11-14; for IC50: human airways 5-12 mm outer diameter, contracted with methacholine (7 μM); for IC50 compared with theophylline: human airways contracted with methacholine (7 μM); for inhibition of S-nitrosothiol (SNOAC)-induced relaxation in human airways: methylene blue 10^-4, LY83583 5×10^-5, hemoglobin 100 μM
Description: (§1) Male Hartley guinea pigs (500-600 g) were anesthetized by inhalation of enflurane to achieve a surgical plane of anesthesia. The trachea were excised and placed in Kreb's-Henseleit buffer (mM): NaCl 118, CKl 5.4, NaH2 PO4 1.01, glucose 11.1, NaHCO3 25.0, MgSO4 0.69, CaCl 2.32, pH 7.4. The airways were then dissected free from surrounding fat and connective tissue and cut into rings 2-4 mm in diameter. The trachea rings were placed in sterile Medium 199 containing 1% antibiotic/antimycotic mixture in an atmosphere of 5% CO2, 45% O2, […], and kept for up to 48 hours in tissue culture. The experiments were also performed on human airway smooth muscle, isolated by the same method.
(§2) Trachea and aortic rings were mounted on stirrups and connected to transducers (model FOT3C Grass) with which changes in isometric tension were measured. Rings were then suspended in 10 cc of oxygenareal (95% O2, 5% CO2) buffer. Conditions for both the vessel and airway bioassays were established according to standard methodologies as described in Cooke et al., Am. J. Physiol. 259(3):H804-H812 (1990).
(§3) In airway experiments, the tings were equilibrated for 60 minutes under a load of 1 gm and then primed twice by exposure to 100 μmethacholine. Tissues were contracted with various agonists at concentrations determined to generate 50% (±16% S.D.) of maximum tone, after which the effects of different thiols and their S-nitrosylated derivatives were assessed. In selected experiments, relaxation responses were determined in the presence of hemoglobin, or after rings had been preexposed to methylene blue for 30 minutes.
(§4) The effect of guanylate cyclase inhibitors upon S-nitrosothiol-induced airway relaxation and cGMP increase was assessed, using the previously described bioassay and cyclic nucleotide assay procedures. Bronchodilator effects of S-NOGSH and SNOAC were examined in human airways (5-12 mm outer diameter).

[2] = target: T1, hemoglobin (Bos taurus, UniProt P01966+P02070); assay: Reaction of S-nitrosothiol with hemoglobin (UV spectrum, oxygen association curve); format: biochemical, bovine; conditions: SNOAC over 15 minutes, NO from NaNO2 in 0.5N HCl
T1 construct: purchased Sigma Chemical Co., St. Louis, Mo
T1 sequence (P02070 whole entry): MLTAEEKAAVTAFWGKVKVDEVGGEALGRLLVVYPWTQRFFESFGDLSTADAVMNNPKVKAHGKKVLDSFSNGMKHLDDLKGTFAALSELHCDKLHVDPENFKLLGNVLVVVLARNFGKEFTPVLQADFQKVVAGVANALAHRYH
T1 sequence (P01966 2-142 limits assumed): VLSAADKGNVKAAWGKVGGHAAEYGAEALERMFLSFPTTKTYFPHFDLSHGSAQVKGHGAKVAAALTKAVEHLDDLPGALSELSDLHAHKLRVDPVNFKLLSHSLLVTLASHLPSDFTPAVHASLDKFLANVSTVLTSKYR
Protocol: Additional experiments were conducted to evaluate the reaction between S-nitrosothiols and hemoglobin. […] S-nitrosylation was verified, using standard methods for detection of S-nitrosothiols (Saville, Analyst 83:670-672 (1958)). The Saville method, which assays free NOx in solution, involves a diazotization reaction with sulfanilamide and subsequent coupling with the chromophore N-(1-naphthyl)ethylenediamine. The specificity for S-nitrosothiols derives from assay determinations performed in the presence and absence of HgCl2, the latter reagent catalyzing the hydrolysis of the S--NO bond.
For the purposes of comparison, equimolar concentrations of hemoglobin and NaNO2 were reacted in 0.5N HCl, to form nitrosyl-hemoglobin, and the UV spectrum was obtained.
Thus, the reaction between S-nitrosothiols and hemoglobin not only eliminates the inhibition of oxygen binding which occurs from the reaction with NO.cndot., but actually increases binding and oxygenation of the blood.

[3] = Stability in the presence of oxygen and redox metals; format: physicochemical; conditions: 95% O2, pH 7.4
Protocol: The stability of SNOAC and SNOGSH in the presence of oxygen and redox metals was assessed.
In addition, S-nitrosothiol stability was assessed in the presence of various redox metals or chelating agents. These compounds were resistant to decomposition when Cu^+, Fe^2+, or Cu^2+ (50 μM) or defuroxamine or EDTA S-nitrosothiols are not rapidly inactivated in the presence of oxygen, nor do they decompose in the presence of redox metals.

[4] = tested on: cGMP in human airways; assay: Cyclic GMP radioimmunoassay in human airways; format: cell-based
Protocol: (§5) The mechanism by which S-nitrosothiols relax vascular smooth muscle is felt to be through activation of guanylate cyclase with consequent increase in intracellular cyclic GMP (Ignarro et al., Circ. Res. 65:1-21 (1989); Loscalzo et al., J. Pharmacol. Exp. Ther. 249(3):726-729 (1989)). In order to assess this mechanism in airways, tracheal rings in Kreb's-Henseleit solution were exposed to 100 μM S-nitroso-N-acetylcysteine (SNOAC) for 90 seconds. Reactions were terminated by the addition of ice cold 10% trichloracetic acid and rapid freezing in ethanol-saturated dry ice.
(§6) In selected experiments, rings were preexposed to the guanylate cyclase inhibitor, methylene blue (10^-4 M) for 30 minutes. Tissues were then individually pulverized with a glass (s) homogenizer and centrifuged at 8000 g for 5 minutes. The clear supernatant was extracted with water-saturated ether and assayed for cyclic GMP by radioimmunoassay. Acetylation of samples with acetic anhydride was used to increase the sensitivity of the assay and the determination of recoveries was aided by the use of [^3 H] cyclic GMP.
as §4

[5] = tested on: gastrointestinal smooth muscle (Sphincter of Oddi, duodenum, colon); assay: Patient studies: topical administration during endoscopy, gastrointestinal smooth muscle motility; format: in vivo, human; conditions: patients
Description: Patient studies, conducted by the inventors, have measured the efficacy of S-nitrosothiols both in facilitating cannulation of the sphincter of Oddi, and in decreasing colon motility to allow for removal of colon polyps. […] The same type of effects would occur with the use of other cell impermeable S-nitrosothiols, such as S-nitroso-glutathione.

[6] = tested on: cyclic GMP (guanylate cyclase) in tracheal rings; assay: Cyclic GMP radioimmunoassay in guinea pig tracheal rings; format: cell-based
Protocol: as §5, §6

[7] = tested on: guinea pig tracheal rings; assay: Airway bioassay: relaxation of contracted guinea pig tracheal rings (isometric tension); format: cell-based; conditions: for IC50: Cavia porcellus, guinea pig tracheal rings contracted with 3 μM histamine, mean ± S.D., read-out: Inhibitory Concentrations Inducing 50% Relaxation (IC50); for inhibition of relaxation responses to SNOAC: airways contracted with 3 uM histamine, 10^-5 M and 10^-4 M methylene blue; for inhibition of relaxation responses to SNOAC / attenuation of the actions (relaxation) of SNOAC: 10^-4 M hemoglobin; for attenuation of the actions (relaxation) of SNOAC: guinea pig airways, 10^-5 and 10^-4 M methylene blue
Description: as §1, §2, §3
Dose-response relationships to SNOAC were obtained in airways contracted with 3 uM histamine, and repeated in the presence of 10^-4 M hemoglobin, 10^-5 M methylene blue, and 10^-4 M methylene blue. […] Cyclic GMP determinations were performed in duplicate for each experiment.

[8] = cited from earlier work

Compound: CC(=O)N[C@@H](CS)C(=O)O [N-acetylcysteine, reference compound]
relaxant effect on human trachea, comparison with other agents [1]: caused significant constriction of the tracheal smooth muscle

Compound: [N]=O [NO, nitric oxide, reference compound]
reaction at the redox metal (iron-binding) site of hemoglobin [2]: reacted instantaneously with the redox metal site on hemoglobin
half life [3]: on the order of seconds

IC50 [1]: 22 µM
IC50 [7]: 2100 ± 800 nM
half life [3]: on the order of hours
Compound: CC(=O)N[C@@H](CSN=O)C(=O)O [S-nitroso-N-acetylcysteine]
increase in cyclic GMP over basal levels (control) ([4]; human airways incubated with SNOAC): 4 fold
cGMP ([4]; human airways, Table 3): 46 ± 17 Pmol/gm
duration and reversibility of relaxant effects [5]: temporary (lasting only for the duration of the procedure), completely reversible
systemic blood pressure, heart rate, oxygen saturation [5]: produced no change in systemic blood pressure, heart rate or oxygen saturation
colon motility ([5]; removal of colon polyps): eliminated colon motility
duodenal motility ([5]; topical administration): eliminated duodenal motility
contractile activity of the Sphincter of Oddi ([5]; topical administration, endoscopic cannulation): inhibited the contractile activity of the Sphincter of Oddi
IC50 compared with theophylline [1]: approximately two orders of magnitude greater than theophylline
relaxant effect on human trachea, comparison with other agents ([1]; listed as SNOAC): significantly greater than that of N-acetylcysteine; also recorded: significantly more potent than that of theophylline; also recorded: compares favorably with that exerted by isoproterenol
increase in cyclic GMP over basal levels (control) ([6]; guinea pig tracheal rings, 100 μM SNOAC, 90 seconds): 4 fold
persistence of relaxation ([7]; 5×10^-6 M, at one hour): significant residual loss of tone was still evident at one hour
time to maximal relaxation ([7]; 5×10^-6 M, followed over 60 minutes): maximal relaxation occurred by five minutes
relaxant activity of SNOAC relative to SNOCAP ([7]; contractions induced by leukotriene D4, histamine, methacholine, in every case): approximately 10 fold
relaxant activity relative to theophylline ([7]; identical study conditions, FIG. 8): approximately 50 times
reaction at the redox metal (iron-binding) site of hemoglobin [2]: no reaction at the redox metal (iron-binding site) of hemoglobin

IC50 [7]: 20000 ± 700 nM
Compound: C[C@H](CSN=O)C(=O)N1CCC[C@H]1C(=O)O [S-nitroso-captopril]

IC50 [7]: 3200 ± 200 nM
Compound: N[C@@H](CSN=O)C(=O)O [S-nitroso-cysteine]

IC50 [1]: 22 µM
IC50 [7]: 990 ± 2000 nM
half life [3]: on the order of hours
Compound: N[C@@H](CCC(=O)N[C@@H](CSN=O)C(=O)NCC(=O)O)C(=O)O [S-nitroso-glutathione]
IC50 compared with theophylline [1]: approximately two orders of magnitude greater than theophylline
relaxant effect on human trachea, comparison with other agents [1]: significantly greater than nitrite (NO2)
relaxant effect on human trachea, comparison with other agents ([1]; listed as S-nitrosoglutathione): significantly greater than glutathione alone
relaxant effect on human trachea, comparison with other agents ([1]; listed as SNOGSH): significantly more potent than that of theophylline; also recorded: compares favorably with that exerted by isoproterenol

IC50 [7]: 2100 ± 300 nM
Compound: N[C@@H](CCSN=O)C(=O)O [S-nitroso-homocysteine]

Compound: CC(C)NCC(O)c1ccc(O)c(O)c1 (stereo not shown) [isoproterenol, reference compound]
rank of relaxant activity among SNOAC, isoproterenol, theophylline ([7]; FIG. 8): most active relaxant

effect on SNOAC-induced increase in cyclic GMP ([6]; pretreatment with methylene blue 10^-4 M, 30 minutes): attenuated
Compound: CN(C)c1ccc2nc3ccc(=[N+](C)C)cc-3sc2c1 [methylene blue, reference compound]
inhibition of S-nitrosothiol (SNOAC)-induced relaxation in human airways [1]: neither hemoglobin or methylene blue attenuated the relaxation effect; also recorded: not significantly inhibited
inhibition of relaxation responses to SNOAC [7]: in a dose-dependent manner
attenuation of the actions (relaxation) of SNOAC [7]: 10-20%

Compound: Cn1c(=O)c2[nH]cnc2n(C)c1=O [theophylline]
plasma concentration at which unacceptable symptoms of toxicity usually appear [8]: ≥ 20 µg/mL

Compound: hemoglobin: hemoglobin (bovine), established inhibitor of NO-induced relaxations
inhibition of S-nitrosothiol (SNOAC)-induced relaxation in human airways [1]: neither hemoglobin or methylene blue attenuated the relaxation effect; also recorded: had little effect
inhibition of relaxation responses to SNOAC [7]: inhibited
attenuation of the actions (relaxation) of SNOAC [7]: 10-20%
